In US12414960B2, “Analogues of oleuropein and oleacein and uses thereof” (Attica Sciences Ltd., priority 2020, dated 2025):
Where two headings read alike, the source gives them in different places.

Columns and labels:
ATP-citrate lyase (ACLY) = molecular target: T1, ATP-citrate lyase (ACLY) (Homo sapiens, UniProt P53396); assay: ACLY Assay Kit (ADP-Glo) enzymatic activity; format: biochemical
T1 construct: purchased BPS Bioscience
T1 sequence (P53396 1-1101): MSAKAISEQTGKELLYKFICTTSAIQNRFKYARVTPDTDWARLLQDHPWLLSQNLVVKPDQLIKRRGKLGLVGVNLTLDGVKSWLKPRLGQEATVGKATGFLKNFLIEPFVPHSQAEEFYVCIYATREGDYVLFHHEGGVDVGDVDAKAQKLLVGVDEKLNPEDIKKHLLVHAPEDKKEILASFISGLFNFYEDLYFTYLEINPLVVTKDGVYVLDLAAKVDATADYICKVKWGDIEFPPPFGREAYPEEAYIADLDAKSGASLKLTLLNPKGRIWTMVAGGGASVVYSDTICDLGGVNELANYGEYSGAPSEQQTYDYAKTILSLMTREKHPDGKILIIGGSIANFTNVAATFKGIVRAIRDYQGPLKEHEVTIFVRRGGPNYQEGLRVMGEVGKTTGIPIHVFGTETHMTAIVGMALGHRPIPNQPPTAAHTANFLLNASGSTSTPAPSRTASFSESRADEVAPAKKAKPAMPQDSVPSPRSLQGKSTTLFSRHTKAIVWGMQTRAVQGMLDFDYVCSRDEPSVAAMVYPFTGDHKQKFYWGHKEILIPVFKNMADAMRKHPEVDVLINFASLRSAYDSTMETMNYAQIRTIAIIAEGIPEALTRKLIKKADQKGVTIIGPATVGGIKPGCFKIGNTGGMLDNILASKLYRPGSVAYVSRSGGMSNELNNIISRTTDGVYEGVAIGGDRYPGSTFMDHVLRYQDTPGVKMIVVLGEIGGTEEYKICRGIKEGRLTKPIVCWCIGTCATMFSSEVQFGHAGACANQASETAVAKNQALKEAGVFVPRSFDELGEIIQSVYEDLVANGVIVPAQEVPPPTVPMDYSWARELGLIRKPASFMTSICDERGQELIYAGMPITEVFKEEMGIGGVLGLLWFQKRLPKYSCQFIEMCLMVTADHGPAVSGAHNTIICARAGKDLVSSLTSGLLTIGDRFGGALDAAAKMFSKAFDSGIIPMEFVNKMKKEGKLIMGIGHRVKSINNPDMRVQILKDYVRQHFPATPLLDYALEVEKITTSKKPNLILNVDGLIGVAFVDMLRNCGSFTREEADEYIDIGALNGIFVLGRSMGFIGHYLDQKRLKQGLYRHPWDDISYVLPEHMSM
Description: An ACLY Assay Kit (BPS Bioscience) was used to evaluate GS27 against ATP-citrate lyase (ACLY) enzymatic activity. The ACLY Assay Kit is designed to measure ACLY activity for screening and profiling applications using ADP-Glo™ Kinase Assay as a detection reagent (Promega #V6930). The ADP-Glo™ Kinase Assay is a luminescent ADP detection assay that provides a universal, homogeneous, high-throughput screening method to measure kinase activity by quantifying the amount of ADP produced during a kinase reaction. Multiple (1, 10, 100, 250, 500, 1000, 2000 nM) GS27 concentrations were used to evaluate GS27 IC50 activity.

topoisomerase Type I = assay: Plasmid relaxation assay; format: biochemical; conditions: NS = not statistically significant
Description: Topoisomerases are nuclear enzymes that play essential roles in DNA replication, transcription, chromosome segregation, and recombination. Type I topoisomerases (classified into three distinct subfamilies—Type IA, IB, and IC based on structural considerations) are enzymes which make single-stranded cuts in DNA. DNA topoisomerases are important targets of approved and experimental anti-cancer agents. The protocol described here are of assays used to assess the ability of GS compounds to inhibit topoisomerase Type I activity based on relaxation of supercoiled DNA.
Plasmid DNA is a circular double-stranded DNA molecule that is mainly found in bacteria and has the ability to self-replicate on its own. Bacteria may have one or more copies of plasmid DNA that help them survive adverse conditions, as they usually carry antibiotic resistance genes. Even with the help of plasmids being transferred from bacterium to bacterium, it is possible to transfer information that contributes to their survival.
When plasmid DNA runs in an electrophoresis gel it appears mainly in three configurations: (1) The supercoiled conformation, in which the plasmid is intact (without fractures), is its most compact form; (2) The open circular, relaxed conformation, to which it goes when single-stranded fractures are caused. This is caused either from enzymatic or other factors (e.g., free radicals) that have the ability to cause DNA breakage; (3) The linear configuration to which it goes when it has double-stranded fractures. These configurations run at different speeds in an electrophoresis gel. The smaller the configuration, the faster it penetrates the agarose pores. […]
The ability of GS compounds to inhibit topoisomerase Type I activity was assessed based on the relaxation of supercoiled DNA as previously described (Kouka, Paraskevi et al., Oxid Med Cell Longev. 2019, Article ID 1870965). […] Finally, the gels were exposed to UV, the MultiImage Light Cabinet (Alpha Innotech, San Leandro, CA, USA) was used to capture the gel photos, and the results were analyzed with the Alpha View suite. […]

[1] = same assay as GS27, read-out: IC50 against ACLY enzyme

Plasmid Relaxation Assay IC50 (topoisomerase Type I) [μg extract/mL] | IC50 (ATP-citrate lyase (ACLY); [1]) [µM] | Structure (SMILES) | IC50 (ATP-citrate lyase (ACLY); 1-2000 nM tested, read-out: IC50 of ACLY activity) [µM]
9.5 |  | C/C=C(/C=O)[C@@H](CC=O)CC(=O)OCCc1ccc(O)c(O)c1 [GS17, (3S,4E)-4-formyl-3-(2-oxoethyl)-4-hexenoic acid 2-(3,4-dihydroxyphenyl)ethyl ester, reference compound] | 
 | > 10 | C/C=C(/C=O)[C@@H](CC=O)CC(=O)OCCc1ccc(O)cc1 [GS19, (3S,4E)-4-formyl-3-(2-oxoethyl)-4-hexenoic acid 2-(4-hydroxyphenyl)ethyl ester, reference compound] | 

Second part, the compound before the results:

Structure (SMILES) | Plasmid Relaxation Assay IC50 (topoisomerase Type I) [μg extract/mL] | IC50 (ATP-citrate lyase (ACLY); [1]) [µM] | IC50 (ATP-citrate lyase (ACLY); 1-2000 nM tested, read-out: IC50 of ACLY activity) [µM]
C/C=C(/C=O)[C@@H](CC=O)CC(=O)SCCc1ccccc1 [GS27, S-phenethyl (3S,4E)-4-formyl-3-(2-oxoethyl)hex-4-enethioate] |  |  | 0.0815
C/C=C1/[C@H](OC2OC(CO)C(O)C(O)C2O)OC=C(C(=O)O)[C@H]1CC(=O)OCCc1ccc(O)c(O)c1 (stereo in doubt) [GS6, (2S,4S,E)-4-(2-(3,4-dihydroxyphenethoxy)-2-oxoethyl)-3-ethylidene-2{[(2R,3S,4R,5R,6S)-3,4,5-trihydroxy-6-(hydroxymethyl)tetrahydro-2H-pyran-2-yl]oxy}-3,4dihydro-2H-pyran-5-carboxylic acid] | 5.94 |  | 
C/C=C1/[C@H](O[C@@H]2O[C@H](CO)[C@@H](O)[C@H](O)[C@H]2O)OC=C(C(=O)OC)[C@H]1CC(=O)OCCc1ccc(O)c(O)c1 [GS1, oleuropein] | 9.91 | > 10 | 
